Experimental findings from patent publication US10821115B2, “Compounds that inhibit Mcl-1 protein” (priority 2017, dated 2020) are described below.

The structures appear in SMILES notation. pIC50: −log10 of the molar value.

The target of the first assay is recombinant human Mcl-1 (residues 171-327) / Bim interaction (Homo sapiens (Human), UniProt Q07820). Nature of the assay: biochemical. Type of assay: binding. The settings on record: 0.1 nM Mcl-1(171-327), 0.05 nM biotin-Bim (51-76); read-out: Mcl-1 HTRF IC50. A general note: Time-resolved FRET reads energy transfer from a long-lived donor to a nearby acceptor.
Sequence of recombinant human Mcl-1 (residues 171-327) / Bim interaction (Q07820 171-327): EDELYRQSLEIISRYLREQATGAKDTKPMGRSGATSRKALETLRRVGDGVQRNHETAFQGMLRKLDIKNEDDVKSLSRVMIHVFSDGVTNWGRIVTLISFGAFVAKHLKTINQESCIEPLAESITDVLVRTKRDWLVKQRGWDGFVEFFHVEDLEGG
For the compound `C[C@@H]1[C@@H](C)C/C=C/[C@]2(CN3CCOC[C@@H]3CO2)[C@@H]2CC[C@H]2CN2C[C@@]3(CCCc4cc(Cl)ccc43)COc3ccc(cc32)C(=O)NS1(=O)=O` [Example 131], the pIC50 (as a rule, the negative decadic logarithm of the IC50, by convention in mol/L) was 9.60.
Same read-out and setting: to `C[C@@H]1[C@@H](C)C/C=C/[C@@]2(CN(C)CCO2)[C@@H]2CC[C@H]2CN2C[C@@]3(CCCc4cc(Cl)ccc43)COc3ccc(cc32)C(=O)NS1(=O)=O` [Example 124, (1S,3′R,6′R,7′S,8′E, 11′S,12′R)-6-chloro-4″,11′,12′-trimethyl-3,4-dihydro-2H,15′H-dispiro[naphthalene-1,22′-[20]oxa[13]thia[1,14]diazatetracyclo[14.7.2.0-3,6˜.0˜19,24˜]pentacosa[8,16,18,24]tetraene-7′,2″-[1,4]oxazinan]-15′-one 13′,13′-dioxide] belongs 9.19.

Still in this assay, the particulars now being: TR-FRET, Mcl-1(171-327) / biotin-Bim (51-76); read-out: Mcl-1 HTRF IC50.
Consider `O=C1NS(=O)(=O)CCCCC[C@](O)(CO)[C@@H]2CC[C@H]2CN2C[C@@]3(CCCc4cc(Cl)ccc43)COc3ccc1cc32` [Example 100021, (1S,3′R,6′R,7′R)-6-chloro-7′-hydroxy-7′-(hydroxymethyl)-3,4-dihydro-2H,15′H-spiro[naphthalene-1,22′-[20]oxa[13]thia[1,14]diazatetracyclo [14.7.2.0~3,6~.0~19,24~]pentacosa[16,18,24]trien]-15′-one 13′,13′-dioxide], for which the negative logarithm of the IC50 (pIC50) was 8.98.
Consider `C[C@H]1CC/C=C/[C@@](C)(O)[C@@H]2CC[C@H]2CN2C[C@@]3(CCCc4cc(Cl)ccc43)COc3ccc(cc32)C(=O)NS1(=O)=O` (single isomer, unassigned) [Example 100032], for which the pIC50 is 9.35.
The same measure, in the same setting: under `CO[C@@]1(CCN(C)C2CCCC2)/C=C/C[C@H](C)[C@@H](C)S(=O)(=O)NC(=O)c2ccc3c(c2)N(C[C@@H]2CC[C@H]21)C[C@@]1(CCCc2cc(Cl)ccc21)CO3` [Example 100418, (1S,3′R,6′R,7′S,8′E,11′S,12′R)-6-chloro-7′-(2-(cyclopentyl(methyl)amino)ethyl)-7′-methoxy-11′,12′-dimethyl-3,4-dihydro-2H,15′H-spiro[naphthalene-1,22′-[20]oxa[13]thia[1,14]diazatetracyclo [14.7.2.0~3,6~.0~19,24~]pentacosa[8,16,18,24]tetraen]-15′-one 13′,13′-dioxide] stands 10.01; under `O=C1NS(=O)(=O)CCCCC[C@@](O)(CO)[C@@H]2CC[C@H]2CN2C[C@@]3(CCCc4cc(Cl)ccc43)COc3ccc1cc32` [Example 100022, (1S,3′R,6′R,7′S)-6-chloro-7′-hydroxy-7′-(hydroxymethyl)-3,4-dihydro-2H,15′H-spiro[naphthalene-1,22′-[20]oxa[13]thia[1,14]diazatetracyclo [14.7.2.0~3,6~.0~19,24~]pentacosa[16,18,24]trien]-15′-one 13′,13′-dioxide], 9.06.
For the compound `C[C@@H]1[C@@H](C)C/C=C/[C@@](O)(C#CCCCN2CCOCC2)[C@@H]2CC[C@H]2CN2C[C@@]3(CCCc4cc(Cl)ccc43)COc3ccc(cc32)C(=O)NS1(=O)=O` [Example 100493, (1S,3′R,6′R,7′S,8′E,11′S,12′R)-6-chloro-7′-hydroxy-11′,12′-dimethyl-7′-(5-(4-morpholinyl)-1-pentyn-1-yl)-3,4-dihydro-2H,15′H-spiro[naphthalene-1,22′-[20]oxa[13]thia[1,14]diazatetracyclo [14.7.2.0~3,6~.0~19,24~]pentacosa[8,16,18,24]tetraen]-15′-one 13′,13′-dioxide], the pIC50 is 9.49.

The next assay has as its system human multiple myeloma cell line, OPM-2. Nature of the assay: Cell viability assay (OPM-2 10 FBS), CellTiter-Glo. Particulars: Homo sapiens, OPM-2, 16 h, read-out: OPM-2 10% FBS IC50 IP, OPM-2 cells, 10% FBS, 16 h, CellTiter-Glo. Type of assay: cell-based. Put shortly:
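Steps: plate cells at 3000/well in 10% FBS growth medium, add serially diluted compound, incubate 16 h at 37 °C with 5% CO2, add detection reagent and read luminescence after 25 min. A 4-parameter logistic model gives IC50.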
(In ATP-based viability assays light output follows the ATP content of the culture.)
Regarding `C[C@@H]1[C@@H](C)CCC[C@@](CO)(CN2CCOCC2)[C@@H]2CC[C@H]2CN2C[C@@]3(CCCc4cc(Cl)ccc43)COc3ccc(cc32)C(=O)NS1(=O)=O` [Example 100341, (1S,3′R,6′R,7′S,11′S,12′R)-6-chloro-7′-(hydroxymethyl)-11′,12′-dimethyl-7′-(4-morpholinylmethyl)-3,4-dihydro-2H,15′H-spiro[naphthalene-1,22′-[20]oxa[13]thia[1,14]diazatetracyclo [14.7.2.0~3,6~.0~19,24~]pentacosa[16,18,24]trien]-15′-one 13′,13′-dioxide], the pIC50 is 5.71.
Still for that read-out and setting: under `COC(=O)CNC(=O)C[C@]1(OC)/C=C/C[C@H](C)[C@@H](C)S(=O)(=O)NC(=O)c2ccc3c(c2)N(C[C@@H]2CC[C@H]21)C[C@@]1(CCCc2cc(Cl)ccc21)CO3` [Example 100550, methyl N-(((1S,3′R,6′R,7′S,8′E,11′S,12′R)-6-chloro-7′-methoxy-11′,12′-dimethyl-13′,13′-dioxido-15′-oxo-3,4-dihydro-2H-spiro[naphthalene-1,22′-[20]oxa[13]thia[1,14]diazatetracyclo [14.7.2.0~3,6~.0~19,24~]pentacosa[8,16,18,24]tetraen]-7′-yl)acetyl)glycinate] stands 5.16.

Still in this assay, the particulars now being: Homo sapiens, OPM-2, 16 h, read-out: OPM-2 10% FBS IC50 IP, OPM-2 cells, 10% FBS, 16 h incubation.
For the compound `COCC[C@@H]1[C@@H](C)C/C=C/[C@@](CN2CCN(C(C)C)[C@H](C)C2)(OC)[C@@H]2CC[C@H]2CN2C[C@@]3(CCCc4cc(Cl)ccc43)COc3ccc(cc32)C(=O)NS1(=O)=O` [Example 12, (1S,3′R,6′R,7′R,8′E,11′S,12′R)-6-chloro-7′-methoxy-12′-(2-methoxyethyl)-11′-methyl-7′-(((3R)-3-methyl-4-(1-methylethyl)-1-piperazinyl)methyl)-3,4-dihydro-2H, 15′H-spiro[naphthalene-1,22′-[20]oxa[13]thia[1,14]diazatetracyclo[14.7.2.0-3,6˜.0˜19,24˜]pentacosa[8,16,18,24]tetraen]-15′-one 13′,13′-dioxide], the pIC50 is 7.66.
The same measure, in the same setting: to `CO[C@@]1(CN2CCN(CC(CO)CO)CC2)/C=C/C[C@H](C)[C@@H](C)S(=O)(=O)NC(=O)c2ccc3c(c2)N(C[C@@H]2CC[C@H]21)C[C@@]1(CCCc2cc(Cl)ccc21)CO3` [Example 310, (1S,3′R,6′R,7′S,8′E,11′S,12′R)-6-chloro-7′-((4-(3-hydroxy-2-(hydroxymethyl)propyl)-1-piperazinyl)methyl)-7′-methoxy-11′,12′-dimethyl-3,4-dihydro-2H,15′H-spiro[naphthalene-1,22′-[20]oxa[13]thia[1,14]diazatetracyclo [14.7.2.0~3,6~.0~19,24~]pentacosa[8,16,18,24]tetraen]-15′-one 13′,13′-dioxide] belongs 6.29.
The same measure, in the same setting: under `CCO[C@]1(CN2CCN3CCOC[C@@H]3C2)/C=C/C[C@H](C)[C@@H](CCOC)S(=O)(=O)NC(=O)c2ccc3c(c2)N(C[C@@H]2CC[C@H]21)C[C@@]1(CCCc2cc(Cl)ccc21)CO3` [Example 13, (1 S,3′R,6′R,7′R,8′E,11′S,12′R)-6-chloro-7′-ethoxy-7′-((9aS)-hexahydropyrazino[2,1-c][1,4]oxazin-8(1H)-ylmethyl)-12′-(2-methoxyethyl)-11′-methyl-3,4-dihydro-2H,15′H-spiro[naphthalene-1,22′-[20]oxa[13]thia[1,14]diazatetracyclo[14.7.2.0-3,6˜.0˜19,24˜]pentacosa[8,16,18,24]tetraen]-15′-one 13′,13′-dioxide] stands 7.20.
As for `CO[C@@]1(CN2CCN(C3COC3)CC2)/C=C/C[C@H](C)[C@@H](C)S(=O)(=O)NC(=O)c2ccc3c(n2)N(C[C@@H]2CC[C@H]21)C[C@@]1(CCCc2cc(Cl)ccc21)CO3` [Example 19, (1 S,3′R,6′R,7′S,8′E,11′S,12′R)-6-chloro-7′-methoxy-11′,12′-dimethyl-7′-((4-(3-oxetanyl)-1-piperazinyl)methyl)-3,4-dihydro-2H, 15′H-spiro[naphthalene-1,22′-[20]oxa[13]thia[1,14,25]triazatetracyclo[14.7.2.0-3,6˜.0˜19,24˜]pentacosa[8,16,18,24]tetraen]-15′-one 13′,13′-dioxide], the negative logarithm of the IC50 (pIC50) is 7.33.
Same read-out and setting: to `C[C@@H]1[C@@H](C)C/C=C/[C@@](O)(CN2CCOC[C@@H]2Cn2ccnc2)[C@@H]2CC[C@H]2CN2C[C@@]3(CCCc4cc(Cl)ccc43)COc3ccc(cc32)C(=O)NS1(=O)=O` [Example 100, (1 S,3′R,6′R,7′S,8′E,11′S, 12′R)-6-chloro-7′-hydroxy-7′-(((3S)-3-(1H-imidazol-1-ylmethyl)-4-morpholinyl)methyl)-11′,12′-dimethyl-3,4-dihydro-2H, 15′H-spiro[naphthalene-1,22′-[20]oxa[13]thia[1,14]diazatetracyclo[14.7.2.0-3,6˜.0˜19,24˜]pentacosa[8,16,18,24]tetraen]-15′-one 13′,13′-dioxide] belongs 5.78.

The same assay, now with this note: read-out: OPM-2 10% FBS IC50 IP; OPM-2 cells, 10% FBS, 16 h incubation.
With `C[C@@H]1[C@@H](C)C/C=C/[C@](O)(CN2CCN3CCOC[C@@H]3C2)[C@@H]2CC[C@H]2CN2C[C@@]3(CCCc4cc(Cl)ccc43)COc3ccc(cc32)C(=O)NS1(=O)=O` [Example 213, (1 S,3′R,6′R,7′R,8′E,11′S,12′R)-6-chloro-7′-((9aS)-hexahydropyrazino[2,1-c][1,4]oxazin-8(1H)-ylmethyl)-7′-hydroxy-11′,12′-dimethyl-3,4-dihydro-2H, 15′H-spiro[naphthalene-1,22′-[20]oxa[13]thia[1,14]diazatetracyclo[14.7.2.0-3,6˜.0˜19,24˜]pentacosa[8,16,18,24]tetraen]-15′-one 13′,13′-dioxide], the pIC50 is 6.40.
On the same count and under the same terms, to `C[C@@H]1[C@@H](C)C/C=C/C(O)(CN2CCN3CCCC[C@@H]3C2)[C@@H]2CC[C@H]2CN2C[C@@]3(CCCc4cc(Cl)ccc43)COc3ccc(cc32)C(=O)NS1(=O)=O` (single isomer, unassigned) [Example 243] belongs 6.97.
Same read-out and setting: under `CO[C@]1(CN2CCN3CCN(C(C)=O)C[C@@H]3C2)/C=C/C[C@H](C)[C@@H](C)S(=O)(=O)NC(=O)c2ccc3c(c2)N(C[C@@H]2CC[C@H]21)C[C@@]1(CCCc2cc(Cl)ccc21)CO3` (single isomer, unassigned) [Example 230] stands 7.15.
